Like-named read-outs stand apart in the source and are kept apart here.
Assays:
[1] = system: P. falciparum 3D7; set-up: method as in ChEMBL-NTD; settings: ref ChEMBL-NTD, cited from earlier work
[2] = system: P. falciparum 3D7; test: DAPI stain fluorescent high content imaging assay, P. falciparum 3D7 (confirmatory screen, Avery); settings: Plasmodium falciparum; for inhibition of growth at 5 µM: 3D7, read-out: percent_inh @ 5 uM; for EC50: 3D7, read-out: EC50_nM
[3] = values follow the order of the source (GNF; GSK; StJude)

Structure (SMILES) | inhibition of growth at 5 µM [2] [%] | EC50 [2] [µM] | other results
O=C(c1ccccc1F)N(Cc1ccc(Cl)cc1)c1ccccn1 [MMV665899] | 59 | – | EC50 ([1]; source GSK): 1.02 µM
O=C(Nc1ccc(CN2CCOCC2)cc1)c1ccc(-c2ccc(Br)cc2)o1 [MMV665901] | 96 | 1.36 | EC50 ([1]; source GSK): 1.12 µM
N=c1n(CCN2CCCCC2)c2ccccc2n1CC(O)c1cccc(Br)c1 (stereo not drawn) [MMV665902] | 98 | 0.893 | EC50 ([1]; source GSK): 1.14 µM
COCCn1c(C)nc2ccccc2c1=O [MMV665904] | 59 | – | EC50 ([1]; original screening data, source (GSK, GNF, StJude), several values separated by ';' in order of sources): 1.46 µM
Cc1ccc(-c2cc(C(=O)Nc3ccc(S(=O)(=O)N4CCCCC4)cc3)[nH]n2)c(O)c1 [MMV665906] | 94 | 0.535 | EC50 ([1]; source GSK): 1.77 µM
COc1ccc(N2CCN(C(CNC(=O)CC(C)(C)C)c3ccc4c(c3)OCO4)CC2)cc1 (stereo not drawn) [MMV665908] | 95 | – | EC50 ([1]; source StJude (SJ ids)): 4.28 µM
O=C(Nc1nc(-c2ccccn2)cs1)c1ccccc1Br [MMV665909] | 97 | 1.36 | EC50 ([1]; source StJude): 4.53 µM
CCOc1ccc(-c2nc(NC(=O)c3cccc(S(C)(=O)=O)c3)sc2C)cc1 [MMV665913] | 95 | – | EC50 ([1]; source StJude): 15 µM
COc1ccccc1N1CCN(C(CNS(=O)(=O)c2ccc(Cl)cc2)c2cccnc2)CC1 (stereo not drawn) [MMV665914] | 93 | – | EC50 ([1]; source StJude): 15 µM
COc1ccc(-c2nc(NC(=O)CS(=O)(=O)c3ccc(F)cc3)sc2C)cc1 [MMV665915] | 97 | 0.448 | EC50 ([1]; source GNF (GNF-Pf id)): 0.212 µM; EC50 ([1]; source GSK (TCMDC id)): 0.243 µM
COc1ccccc1CNC(=O)CCn1c(=O)[nH]c2ccccc2c1=O [MMV665916] | 64 | 0.0726 | EC50 ([1]; source GNF (GNF-Pf id)): 0.537 µM
O=C(Nc1ccc(Cl)cc1)N1CCN(c2ccc3nncn3n2)CC1 [MMV665917] | 62 | – | EC50 ([1]; source GNF): 2.06 µM
O=C(CSc1ccc2nnc(-c3cccc(F)c3)n2n1)Nc1ccc2c(c1)OCO2 [MMV665918] | 92 | – | EC50 ([1]; source GNF): 2.11 µM
N=c1c2ccccc2nnn1-c1cccc(C(F)(F)F)c1 [MMV665923] | 83 | – | EC50 ([1]; source GNF (GNF-Pf ids)): 0.134 µM
COc1ccc(C(=O)C2CC2c2ccc(Cl)cc2)cc1 (stereo not drawn) [MMV665924] | 94 | 1.06 | EC50 ([1]; source GNF (GNF-Pf ids)): 0.217 µM
O=C(CCl)NCCOc1ccc(Cl)cc1Cl [MMV665927] | 94 | 0.555 | EC50 [1, 3]: 0.538 µM
CCC(C)NCC(O)(c1ccc(Cl)cc1)c1ccc(Cl)cc1 (stereo not drawn) [MMV665928] | 98 | 0.642 | EC50 ([1]; source GNF): 0.639 µM; EC50 ([1]; source GSK): 0.843 µM
CCCCNCC(O)(c1ccc(Cl)cc1)c1ccc(Cl)cc1 [MMV665929] | 97 | 0.843 | EC50 ([1]; source GNF): 0.72 µM
O=C1c2ccccc2-c2nnc(-c3ccc(Br)cc3)cc21 [MMV665934] | 99 | 1.07 | EC50 ([1]; source GNF (GNF-Pf ids)): 2.5 µM
FC(F)(F)c1ccc(Nc2nnnc3ccccc23)cc1 [MMV665935] | 77 | – | EC50 ([1]; source GNF): 7.72 µM; EC50 ([1]; source GSK): 0.692 µM

Structure (SMILES) | inhibition of growth at 5 µM [2] [%] | EC50 [2] [µM] | other results
Cc1ccc(S(=O)(=O)c2c(COC(=O)c3cccc(C)c3)c(-c3ccccc3)nn2C)cc1 [MMV665936] | 95 | – | EC50 ([1]; source GNF (GNF-Pf ids)): 8.4 µM
O=C(Nc1ccsc1C(=O)NC1CCCCC1)c1ccc(F)cc1 [MMV665939] | 86 | – | EC50 ([1]; source GSK): 1.21 µM
CCOc1ccc(C=Cc2nc(=O)c3ccccc3o2)cc1 [MMV665940] | 95 | 0.56 | EC50 ([1]; source StJude): 0.188 µM
CN(C)c1ccc(C(O)(c2ccc(N(C)C)cc2)c2ccc(N(C)C)cc2)cc1 [MMV665941] | 96 | 0.255 | EC50 ([1]; source StJude (SJ id)): 0.62 µM
Nc1ccc(-c2nc3cc(Cc4ccc5[nH]c(-c6ccc(N)cc6)nc5c4)ccc3[nH]2)cc1 [MMV665943] | 100 | 1.42 | EC50 ([1]; source GNF (GNF-Pf ids)): 0.243 µM; EC50 ([1]; source GSK (TCMDC ids)): 0.512 µM; EC50 ([1]; source StJude (SJ ids)): 1.08 µM
COc1ccc(CN2CCN(Cc3ccccc3)CC2)c(O)c1 [MMV665944] | 96 | 1.08 | EC50 ([1]; source StJude (SJ ids)): 1.09 µM
CC(C)=CCN1CCC(C(=O)Nc2ccc(-c3nc4ccccc4[nH]3)cc2)CC1 [MMV665946] | 96 | 1.16 | EC50 ([1]; source GSK): 0.908 µM; EC50 ([1]; source StJude): 1.34 µM
O=C(Nc1ccccc1O)c1ccc(-c2ccc(Cl)cc2Cl)o1 [MMV665948] | 97 | – | EC50 ([1]; source StJude): 2.46 µM
Oc1ccc(C(=C(Cl)Cl)c2ccc(O)cc2)cc1 [MMV665949] | 95 | – | EC50 ([1]; source StJude (SJ ids)): 2.47 µM
O=C(Nc1ccc(F)c(Cl)c1)Nc1ccc(Cl)c(Cl)c1 [MMV665953] | 95 | 2.06 | EC50 ([1]; source StJude): 5.41 µM
O=C(NCC1Cc2cccc(-c3ccncc3)c2O1)c1csc2c1CCCC2 (stereo not drawn) [MMV665954] | 87 | 1.72 | EC50 ([1]; source StJude): 8.74 µM
CCN(CC)CCCNc1nc(-c2ccc(Cl)cc2)nc2ccccc12 [MMV665961] | 92 | – | EC50 ([1]; source StJude): 15 µM
COc1cccc(C(=O)NC(c2ccc(C)cc2)c2cc(Cl)c3cccnc3c2O)c1 (stereo not drawn) [MMV665969] | 97 | 0.393 | EC50 ([1]; source StJude (SJ ids)): 15 µM
CCOC(=O)C1=C(C)N=c2sc(=Cc3cc(Cl)ccc3O)c(=O)n2C1c1ccc(OC)cc1 (stereo not drawn) [MMV665971] | 97 | 0.489 | EC50 ([1]; source GSK (TCMDC ids)): 0.746 µM; EC50 ([1]; source StJude (SJ ids)): 15 µM
O=C(Cc1ccccc1)NC(c1ccc(Cl)cc1)c1c(O)ccc2ccccc12 (stereo not drawn) [MMV665972] | 97 | 1.14 | EC50 [1, 3]: 15 µM
CCOC(=O)c1cn(CC)c2cc(N(C)CCc3ccc(OC)c(OC)c3)c(F)cc2c1=O [MMV665977] | 99 | 0.205 | EC50 ([1]; source GNF (GNF-Pf id)): 0.103 µM; EC50 ([1]; source GSK (TCMDC id)): 0.425 µM
FC(F)(F)c1cccc(CNC2CCN(CCc3ccccc3)CC2)c1 [MMV665979] | 96 | 0.685 | EC50 ([1]; source GNF): 0.174 µM
OC1CCCCC1C1(NC(=S)Nc2ccccc2)CCCCC1 (stereo not drawn) [MMV665980] | 59 | – | EC50 ([1]; source GNF (GNF-Pf ids)): 0.211 µM
CCCCCCc1cc(O)c2c3c(c(=O)oc2c1)CCC(C)C3 (stereo not drawn) [MMV665987] | 96 | 0.534 | EC50 ([1]; source GNF (GNF-Pf ids)): 0.364 µM
Cc1nc2ccccc2c(O)c1CC=C(Cl)Cl [MMV665994] | 89 | 0.836 | EC50 ([1]; source GNF (GNF-Pf ids)): 0.498 µM

Structure (SMILES) | inhibition of growth at 5 µM [2] [%] | EC50 [2] [µM] | other results
CN1c2ccccc2N(C)C1c1ccc2c(c1)OCO2 [MMV666009] | 60 | 0.994 | EC50 ([1]; source GNF): 1.12 µM
Cc1ccc(OCCCCCCNCCO)c(C)c1 [MMV666020] | 49 | – | EC50 ([1]; source GNF (GNF-Pf ids)): 1.97 µM
Cc1ccc(-c2cc3c(nn2)-c2ccccc2C3=O)cc1 [MMV666021] | 99 | 0.0944 | EC50 ([1]; source GNF): 2 µM
COc1ccc(C(=O)NC(c2ccccc2Cl)c2cc(Cl)c3cccnc3c2O)cc1 (stereo not drawn) [MMV666022] | 96 | 0.83 | EC50 ([1]; source GNF (GNF-Pf ids)): 2.37 µM
c1ccc(Cn2c(N=Nc3c(Nc4ccccc4)ccc4ccccc34)nc3ccccc32)cc1 [MMV666023] | 96 | 0.0368 | EC50 ([1]; source GNF (GNF-Pf id)): 2.73 µM
OC(Cn1nnc2ccccc21)Cn1c2ccc(Br)cc2c2cc(Br)ccc21 (stereo not drawn) [MMV666025] | 98 | 1.26 | EC50 ([1]; source GNF (GNF-Pf ids)): 3.37 µM
COc1ccc(-c2cc3c(nn2)-c2ccccc2C3=O)cc1 [MMV666026] | 97 | – | EC50 ([1]; source GNF (GNF-Pf ids)): 3.84 µM
COc1ccc(C(=O)NC(c2ccc(Cl)cc2Cl)c2cc(Cl)c3cccnc3c2O)cc1 (stereo not drawn) [MMV666054] | 96 | 0.513 | EC50 ([1]; source GSK (TCMDC ids)): 0.499 µM
O=C(Nc1ccc(Cl)cc1C(=O)Nc1ccncc1)c1ccc(Cl)cc1Cl [MMV666057] | 94 | – | EC50 ([1]; source GSK): 0.611 µM
COc1ccc(CN2CCCC(C(=O)c3ccc(C(F)(F)F)cc3)C2)c(O)c1 (stereo not drawn) [MMV666060] | 97 | – | EC50 ([1]; source GSK (TCMDC ids)): 0.849 µM
COc1cccc(O)c1CN1CCC2(CCCN(Cc3ccc(F)cc3)C2)C1 (stereo not drawn) [MMV666061] | 95 | 0.53 | EC50 ([1]; source GSK): 0.865 µM
Cc1ccc(N2C(=O)C3C(C2=O)C2(c4ccccc4)C(=O)C3(c3ccccc3)C(c3ccccc3)=C2c2ccccc2)cc1 (stereo not drawn) [MMV666062] | 98 | 0.282 | EC50 ([1]; source GSK (TCMDC id)): 0.869 µM
COc1ccc(CNC2CCN(c3ccc(NC(=O)c4cccc(Cl)c4)cc3)CC2)cc1OC [MMV666067] | 97 | 0.663 | EC50 ([1]; source GSK): 1.02 µM
COc1ccc(CCN2CCC(CN(C)Cc3cnn(-c4ccccc4)c3)CC2)cc1 [MMV666069] | 96 | 1.43 | EC50 ([1]; source GSK): 1.16 µM
O=C(NC1CCCC1)c1ccc(N2CCC(NCc3cccc(C(F)(F)F)c3)CC2)cc1 [MMV666070] | 93 | – | EC50 ([1]; source GSK): 1.33 µM
Cc1ccc(CN2CCC(C(=O)Nc3ccc(-c4cc5ccccc5[nH]4)cc3)CC2)o1 [MMV666071] | 77 | – | EC50 ([1]; source GSK): 1.42 µM
COCCNC(=O)c1ccc(OC2CCN(Cc3ccc(F)c(F)c3)CC2)c(Cl)c1 [MMV666072] | 91 | – | EC50 ([1]; source GSK): 1.49 µM
COc1ccc(C2N(C)c3ccccc3N2C)cc1 [MMV666075] | 62 | – | EC50 ([1]; source StJude): 15 µM
